Laboratory results as given in article PMC10364322, “Evaluation of chronic drug-induced electrophysiological and cytotoxic effects using human-induced pluripotent stem cell-derived cardiomyocytes (hiPSC-CMs)” (Frontiers in Pharmacology, 2023).
Where two headings read alike, the source gives them in different places.

Assays:
[1] = tested on: hiPSC-CMs (iCell-Cardiomyocytes^2)
Description: (§1) Cells were seeded according to the instructions of the cell provider, in fibronectin-coated 48-well MEA plates (Axion Cytoview Plates, M768-tMEA-48B) at a density suited to form a monolayer (i.e., 50 K/well) and maintained in culture in a stage incubator (37°C, 5% CO2).
(§2) At least 4 h before the beginning of the baseline measurements, a full medium exchange was performed (to a final volume of 400 µL per well). Neat compounds were dissolved in 100% DMSO at a stock concentration 1000-fold the highest target concentration. […] Afterwards, these stock solutions were diluted with Maintenance medium (CDi), to 10-fold the intended concentration. The final DMSO concentration in test solutions and vehicle control was 0.1%.
(§3) Spontaneous electrical activity was recorded in hiPSC-CMs monolayers as field potentials using the Maestro Pro MEA instrument (Axion Biosystems, Atlanta, GA, United States), which allows the maintenance of accurate temperature and CO2 levels (37°C, 5% CO2). After the plate was placed in the Maestro Pro and allowed to equilibrate for about 10 min, baseline acquisition of field potential and impedance signals was initiated and lasted for 5 min each. […] As impedance measures resistance of an applied alternating current through the hiPSC-CMs monolayer, a reduction in the attachment of hiPSC-CMs to the bottom of the well due to cell death or changes in the monolayer morphology, causes a drop in the impedance signal.
The potential presence of various arrhythmic events was evaluated and noted during the data analysis.
(§4) After the acquisition of all timepoint measurements, raw data were loaded into the data analysis software Axion Cardiac Analysis Tool (V.3.2.3). […] A.csv file containing information on the FP parameters per well, per time point, was then generated and used as input to the in-house data management system (SPEcII v.3.4, Unlimit-IT, Geel, Belgium), where descriptive statistics were calculated. Summary values at different time points after compound addition are expressed as percent change from baseline and shown as mean ± standard deviation (SD).
(§5) The nonparametric Wilcoxon-Mann Whitney Test was used to compare the percent change from the baseline (Δ%) value between the group treated with the compound at a given concentration and the group treated with the DMSO at each matching time points. A two-sided test at 5% significance level was considered. […] To assess the physiological relevance of changes, a tolerance interval of DMSO experiments was calculated at each time point, for each parameter. […] TIs indicate an interval where, with a certain confidence level (1- α = 0.95), a specified proportion (p = 0.80) of percent change for DMSO data falls. The lower and upper limits based on the TI values were used as cut-offs for the interpretation of the changes. For the cytotoxicity assays, measurements of fluorescence (after background fluorescence subtraction) from wells treated with the compounds were normalized by the average value of vehicle experiments (DMSO 0.1%) to obtain a DMSO-corrected, delta/delta percent change. Experiments from each condition, as delta/delta percent, were averaged and expressed as mean ± SD. Statistical analysis was performed using a non-parametric test (Kruskal-Wallis) and each treatment condition was compared to the relative DMSO 0.1%. Differences were considered statistically significant when the p-value was smaller than 0.05.

[2] = tested on: hiPSC-CMs (iCell-Cardiomyocytes^2); assay: MEA impedance (cytotoxicity readout) in hiPSC-CMs
Description: as §1, §2, §3, §4, §5

[3] = free therapeutic Cmax in humans; ref FDA-approved drug packages, PharmaPendium; cited from earlier work
[4] = all concentrations tested, up to 96 h

BR (beating rate), % change from baseline ([1]; 3 µM, 72h): -10±2%
FPD (field-potential duration), % change from baseline ([1]; 3 µM, 72h): 16.3±2.2%
BR (beating rate), % change from baseline ([1]; 3 µM, 96h): -18±1%
FPD (field-potential duration), % change from baseline ([1]; 3 µM, 96h): 25.2±3.5%
BR (beating rate), % change from baseline ([1]; 3 µM, 2h): 2±2%
FPD (field-potential duration), % change from baseline ([1]; 3 µM, 2h): 2.5±1.6%
BR (beating rate), % change from baseline ([1]; 3 µM, 24h): 1±2%
FPD (field-potential duration), % change from baseline ([1]; 3 µM, 24h): 6.2±3%
BR (beating rate), % change from baseline ([1]; 3 µM, 48h): -7±1%
FPD (field-potential duration), % change from baseline ([1]; 3 µM, 48h): 13.2±2.8%
BR (beating rate), % change from baseline ([1]; 10 µM, 2h): 3±2%
FPD (field-potential duration), % change from baseline ([1]; 10 µM, 2h): 4±7.9%
BR (beating rate), % change from baseline ([1]; 10 µM, 24h): 2±3%
FPD (field-potential duration), % change from baseline ([1]; 10 µM, 24h): 5.8±4.5%
BR (beating rate), % change from baseline ([1]; 10 µM, 48h): -8±3%
FPD (field-potential duration), % change from baseline ([1]; 10 µM, 48h): 12.2±6.3%
BR (beating rate), % change from baseline ([1]; 10 µM, 72h): -9±2%
FPD (field-potential duration), % change from baseline ([1]; 10 µM, 72h): 14.6±6.7%
BR (beating rate), % change from baseline ([1]; 10 µM, 96h): -17±3%
FPD (field-potential duration), % change from baseline ([1]; 10 µM, 96h): 23.3±7.8%
BR (beating rate), % change from baseline ([1]; 30 µM, 2h): 3±2%
FPD (field-potential duration), % change from baseline ([1]; 30 µM, 2h): 0.9±1.8%
BR (beating rate), % change from baseline ([1]; 30 µM, 24h): 0±4%
FPD (field-potential duration), % change from baseline ([1]; 30 µM, 24h): 6.7±3.9%
BR (beating rate), % change from baseline ([1]; 30 µM, 48h): -8±2%
FPD (field-potential duration), % change from baseline ([1]; 30 µM, 48h): 13.5±5.1%
BR (beating rate), % change from baseline ([1]; 30 µM, 72h): -9±3%
FPD (field-potential duration), % change from baseline ([1]; 30 µM, 72h): 15.4±5%
BR (beating rate), % change from baseline ([1]; 30 µM, 96h): -18±4%
FPD (field-potential duration), % change from baseline ([1]; 30 µM, 96h): 23.3±4.7%
BR (beating rate), % change from baseline ([1]; 100 µM, 2h): 2±3%
FPD (field-potential duration), % change from baseline ([1]; 100 µM, 2h): 0.2±2.9%
BR (beating rate), % change from baseline ([1]; 100 µM, 24h): -2±3%
FPD (field-potential duration), % change from baseline ([1]; 100 µM, 24h): 7.2±3.6%
BR (beating rate), % change from baseline ([1]; 100 µM, 48h): -7±2%
FPD (field-potential duration), % change from baseline ([1]; 100 µM, 48h): 13.4±3%
BR (beating rate), % change from baseline ([1]; 100 µM, 72h): -10±3%
FPD (field-potential duration), % change from baseline ([1]; 100 µM, 72h): 17.6±2%
BR (beating rate), % change from baseline ([1]; 100 µM, 96h): -16±4%
FPD (field-potential duration), % change from baseline ([1]; 100 µM, 96h): 23.9±1.7%
SMILES: CC(=O)Oc1ccccc1C(=O)O [Aspirin]
cessation of beating, flat T-wave or arrhythmic-like events [1, 4]: no cessation of beating, flat T-wave or arrhythmic-like events were detected
Imp (impedance), % change from baseline ([2]; 3 µM, 72h): -2±2%
Imp (impedance), % change from baseline ([2]; 3 µM, 96h): -7±3%
Imp (impedance), % change from baseline ([2]; 3 µM, 2h): 5±3%
Imp (impedance), % change from baseline ([2]; 3 µM, 24h): -9±4%
Imp (impedance), % change from baseline ([2]; 3 µM, 48h): -10±2%
Imp (impedance), % change from baseline ([2]; 10 µM, 2h): 6±2%
Imp (impedance), % change from baseline ([2]; 10 µM, 24h): -8±3%
Imp (impedance), % change from baseline ([2]; 10 µM, 48h): -7±3%
Imp (impedance), % change from baseline ([2]; 10 µM, 72h): -4±5%
Imp (impedance), % change from baseline ([2]; 10 µM, 96h): -6±6%
Imp (impedance), % change from baseline ([2]; 30 µM, 2h): 6±4%
Imp (impedance), % change from baseline ([2]; 30 µM, 24h): -4±3%
Imp (impedance), % change from baseline ([2]; 30 µM, 48h): -8±3%
Imp (impedance), % change from baseline ([2]; 30 µM, 72h): -1±2%
Imp (impedance), % change from baseline ([2]; 30 µM, 96h): -3±2%
Imp (impedance), % change from baseline ([2]; 100 µM, 2h): 8±1%
Imp (impedance), % change from baseline ([2]; 100 µM, 24h): -7±4%
Imp (impedance), % change from baseline ([2]; 100 µM, 48h): -11±3%
Imp (impedance), % change from baseline ([2]; 100 µM, 72h): -2±6%
Imp (impedance), % change from baseline ([2]; 100 µM, 96h): -6±7%
effect on impedance [2, 4]: did not have a significant effect on impedance
Free Cmax [3]: 11.1 µM
